Paper PMC7069976, “Improved secretion of glycoproteins using an N-glycan-restricted passport sequence tag recognized by cargo receptor” (Nature Communications, 2020)

Tested on: HCT116 cells (WT)
Test: EPO secretion level (ELISA) from wild-type HCT116 cells
Format: cell-based
Settings: for EPO secretion level (Figure 4F): HCT116, alanine substitutions in motif
Text: For expression of the FVIII and FV full-length and deletion mutant proteins in mammalian cells, the codon-optimized FVIII and FV genes were inserted into the p3XFLAG-CMV-14 Expression Vector and p3XFLAG-CMV-9 Expression Vector, respectively (Sigma-Aldrich, St. Louis, MO). For the expression of the wild-type and mutated AAT, EPO, and sFγRIIIa in mammalian cells, the corresponding genes (purchased from FASMAC Co., Ltd., Atsuki, Japan) were inserted into the p3XFLAG-CMV-9 Expression Vector (Sigma-Aldrich).
HCT116 and its mutated cells as well as HEK293T were maintained in Dulbecco’s modified Eagle’s medium (DMEM) supplemented with 10% fetal bovine serum in 5% CO2 at 37 °C. For complementary DNA (cDNA) transfection, cells were grown overnight and transfected using Polyethylenimine “Max” (Polysciences Inc.) as described previously. Expi293F cells (Thermo Fisher Scientific, Waltham, MA) were maintained in Expi293 Expression Medium (Thermo Fisher Scientific) in 5% CO2 at 37 °C on an orbital shaker platform rotating at 125 r.p.m. For cDNA transfection, cells were transfected with the ExpiFectamine 293 Transfection Kit (Thermo Fisher Scientific Inc.). Protein expression was performed in serum-free medium.
The secreted levels of FVIII and FV antigens in the culture medium were determined with an sandwich enzyme-linked immunosorbent assay (ELISA) method using the VisuLize FVIII Antigen Kit (Affinity Biologicals Inc., Ancaster, ON) and the Asssay Max™ Human Factor V ELISA Kit (ASSAYPRO, MO), respectively. The secreted levels of AAT and EPO antigens in the culture medium were determined with an ELASA method using the anti-AAT antibody (Agilent, Santa Clara, CA) and anti-Flag M2 antibody (Sigma-Aldrich), respectively.

Substance: EPO: recombinant Flag-tagged erythropoietin without motif (Fig. 5 prints EPO for mScarlet-I-EPO)
- EPO secretion level (Figure 4E), average (HCT116, N-glycan-deficient mutants, Average, EPO = 1): 1
- EPO secretion level (Figure 4E) (HCT116, N-glycan-deficient mutants, replicate 1): 1.0366
- EPO secretion level (Figure 4E) (HCT116, N-glycan-deficient mutants, replicate 2): 1.006
- EPO secretion level (Figure 4E) (HCT116, N-glycan-deficient mutants, replicate 3): 0.9333
- EPO secretion level (Figure 4E) (HCT116, N-glycan-deficient mutants, replicate 4): 1.024
- EPO secretion level (Figure 4F), average (HCT116, alanine substitutions in C-terminal motif, Average, n = 3, EPO = 1): 1
- EPO secretion level (Figure 4F) (replicate 1): 1.027
- EPO secretion level (Figure 4F) (replicate 2): 1.0473
- EPO secretion level (Figure 4F) (replicate 3): 0.9257
- EPO secretion level (Figure 4C), average (HCT116, motif position series, average, n = 3 independent transfections, Flag-EPO average = 1): 1
- EPO secretion level (Figure 4C) (HCT116, motif position series, replicate 1): 1.0819
- EPO secretion level (Figure 4C) (HCT116, motif position series, replicate 2): 0.9754
- EPO secretion level (Figure 4C) (HCT116, motif position series, replicate 3): 0.9427
- EPO secretion level (Figure 4D), average (Wild type HCT116, KO series, average, n = 3, EPO in wild type = 1): 1
- EPO secretion level (Figure 4D) (Wild type HCT116, KO series, replicate 1): 0.9075
- EPO secretion level (Figure 4D) (Wild type HCT116, KO series, replicate 2): 1.011
- EPO secretion level (Figure 4D) (Wild type HCT116, KO series, replicate 3): 1.081
